These results are taken from US20070060617A1, “2-Methoxy-5(5-trifluoromethyl-tetrazol-1-yl-benzyl)-2s-phenyl-piperdin-3s-yl)-amine for the treatment of social phobia” (priority 2004, published 2007).

Counter-ions that a name gives are not always drawn.

For the test, the system named is patients suffering from social phobia (Social Anxiety Disorder). The experiment in a line: double-blind, placebo-controlled study in patients suffering from social phobia (self-report questionnaires, state anxiety measures, verbal performance, PET). It counts as in vivo, human. Conditions: NK1-antagonist group, daily oral dose of 5 mg, administered four weeks. The text has this:
The first study was a double-blind, placebo-controlled study of the effect of [2-methoxy-5-(5-trifluoromethyl-tetrazol-1-yl-benzyl)]-(2-phenyl-piperidin-3-yl)-amine dihydrochloride in patients suffering from social phobia (otherwise known as Social Anxiety Disorder). Thirty six patients aged between 19 and 48 meeting the DSM-IV criteria for social phobia (as set out in Diagnostic and Statistical Manual of Mental Disorders, 4th Edition, published by the American Psychiatric Association) were selected. […] The effect of [2-methoxy-5(5-trifluoromethyl-tetrazol-1-yl-benzyl)]-(2-phenyl-piperidin-3-yl)-amine dihydrochloride on anxiety symptoms and brain activity in patients diagnosed with social phobia was evaluated using self-report questionnaires (the Social Phobia Scale (SPS), the Social Interaction Anxiety Scale (SIAS), the Personal Report on Confidence as a Speaker (PRCS), the Social Phobia Screening Questionnaire (SPSQ), the Sheehan Disability Inventory (SDI), self-report versions of the Liebowitz Social Anxiety Scale (LSAS-SR) and the Global Assessment of Functioning (GAF) scale), state anxiety measures (the Speilberger state-anxiety inventory (STAI-S), subjective ratings of fear and distress on 0-100 (min-max) scales and heart rate), verbal performance (comparing the number of spoken syllables during the first ten seconds of each videotaped speech) and PET assessments.

Regarding `COc1ccc(-n2nnnc2C(F)(F)F)cc1CN[C@H]1CCCN[C@H]1c1ccccc1` [[2-methoxy-5-(5-trifluoromethyl-tetrazol-1-yl-benzyl)]-(2-phenyl-piperidin-3-yl)-amine dihydrochloride], the “effect compared with placebo” value is recorded as “generally superior to placebo” and the “improvement of patients with social phobia after short-term treatment” value is “significantly improved”.
